Data taken from patent US12629370B2, “Treatment of prostate cancer” (Sumitomo Pharma Co., Ltd., priority 2016, dated 2026).
Entries after “also recorded” stand apart in the source; their conditions may differ.

Experiments:
[1] = test system: patients with advanced prostate cancer; assay: Example 8: treatment-emergent adverse events (safety population)
Procedure: The core tablets were coated with a film coating comprising hypromellose 2910 (21.36 mg), titanium dioxide (2.4 mg), and red ferric oxide (0.06 mg).
For patients receiving leuprolide acetate (leuprorelin), on-treatment study visits occurred at baseline (day 1, week 1), day 1 of weeks 2, 3, and 5, and then every 4 weeks until week 25, and then at 12 week intervals (week 37 and 49). Patients on leuprorelin received their final injection at week 37, day 1, and the week 49, day 1 visit was considered the end of leuprorelin exposure. Patients receiving leuprorelin at visits at 16 (EOT), 20 (follow-up visit), and 24 (EOS) weeks after the last leuprorelin injection.
Efficacy and safety analyses were conducted using a safety population (received ≥1 dose of study drug). […] Safety was assessed by recording the incidence, severity, and types of treatment-emergent adverse events; by physical examination (including slit lamp examination of the anterior eye); and by evaluating changes from baseline in weight, vital signs, 12-lead electrocardiogram (ECG), and clinical laboratory parameters. […] Adverse events were coded using the Medical Dictionary for Regulatory Activities version 19.0 and graded according to National Cancer Institute Common Terminology Criteria version 4.03 (Tables 7 and 8). Safety-related haematology, chemistry, and urinalysis measurements were taken at each study visit and analysed at a central laboratory (LabCorp). Phospholipidosis was assessed as part of the safety assessments.

[2] = test system: serum testosterone; assay: Example 8: serum testosterone in men with advanced prostate cancer, versus leuprolide acetate; assay type: in vivo, human; details: for Testosterone Mean (Std Dev) / Testosterone Median / Median testosterone: Leuprorelin Q12W
Text: Eligible men were aged ≥18 years with a histologically confirmed diagnosis of prostate adenocarcinoma, and were candidates for ADT for the management of hormone-sensitive prostate cancer with one of the following clinical disease states: advanced localized disease not suitable for primary surgical or radiation therapy; evidence of PSA biochemical or clinical relapse following primary surgery or radiation therapy of curative intent; or newly diagnosed metastatic disease that was asymptomatic and without visceral involvement. […] Patients with advanced, localized MON1 or M1 disease with clinically significant symptoms or visceral involvement, who required immediate GnRH therapy, chemotherapy, or radiation therapy were not eligible for the trial.
Serum testosterone levels were measured at each visit.

[3] = test system: FSH; assay: Example 8: FSH levels; assay type: in vivo, human; details: for FSH Mean (Std Dev) / FSH Median: Leuprorelin Q12W;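 for all read-outs here: FSH determined at every study visit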
[4] = test system: PSA; assay: Example 8: PSA response; assay type: in vivo, human
Text: Eligible men were aged ≥18 years with a histologically confirmed diagnosis of prostate adenocarcinoma, and were candidates for ADT for the management of hormone-sensitive prostate cancer with one of the following clinical disease states: advanced localized disease not suitable for primary surgical or radiation therapy; evidence of PSA biochemical or clinical relapse following primary surgery or radiation therapy of curative intent; or newly diagnosed metastatic disease that was asymptomatic and without visceral involvement. Additional inclusion criteria at screening included: eugonadal serum testosterone >150 ng/dl (5.2 nmol/L); serum PSA concentration >2 ng/ml (or, when applicable, >0.2 ng/ml following radical prostatectomy or >2 ng/mL above the post-radiotherapy nadir following radiotherapy); body mass index ≥18.0 at screening and/or baseline (i.e., the subject's BMI prior to treatment commencing); and Eastern Cooperative Oncology Group (ECOG) performance status of 0 or 1. Patients with advanced, localized MON1 or M1 disease with clinically significant symptoms or visceral involvement, who required immediate GnRH therapy, chemotherapy, or radiation therapy were not eligible for the trial.
PSA levels were measured at each visit.

[5] = test system: patients with advanced prostate cancer; assay: Example 8: quality of life, Aging Male Survey (AMS); assay type: in vivo, human; details: Leuprorelin Q12W
Procedure: Quality of life (QoL) was assessed throughout the study and the follow-up period. The 25-item Prostate Cancer Module of the European Organization for Research and Treatment of Cancer Quality of Life Questionnaire (EORTC QLQ-PR25), Aging Male Survey (AMS), and core 30-item EORTC Quality of Life Questionnaire (EORTC QLQ-C30) were completed at screening, day 1 of weeks 5, 13, 25, 37, and 49, and, if applicable, at the follow-up visits.

## CCNC(=O)[C@@H]1CCCN1C(=O)[C@H](CCCNC(=N)N)NC(=O)[C@H](CC(C)C)NC(=O)[C@@H](CC(C)C)NC(=O)[C@H](Cc1ccc(O)cc1)NC(=O)[C@H](CO)NC(=O)[C@H](Cc1c[nH]c2ccccc12)NC(=O)[C@H](Cc1c[nH]cn1)NC(=O)[C@@H]1CCC(=O)N1 [Leuprorelin, leuprolide acetate]
[1]; Leuprorelin Q12W
  Cerebral haemorrhage, Grade ≥3: 0 n (%)
  Cerebrovascular accident, Grade ≥3: 0 n (%)
  Death (Table 7): 1 (4) n (%)
  Death, Grade ≥3 (Table 8): 0 n (%)
  Musculoskeletal pain, Grade ≥3: 0 n (%)
  Sudden death, Grade ≥3: 0 n (%)
[1]; in vivo
  Acute coronary syndrome, Grade ≥3: 0 n (%)
  Adverse event resulting in study drug discontinuation: 0 n (%)
  Alanine aminotransferase increased, Grade ≥3: 0 n (%)
  Any adverse event: 23 (96) n (%)
  Arthralgia, Grade ≥3 (Table 8): 0 n (%)
  Aspartate aminotransferase increased, Grade ≥3: 0 n (%)
  Atrial flutter, Grade ≥3: 0 n (%)
  Bladder cancer, Grade ≥3: 0 n (%)
  Cervical vertebral fracture, Grade ≥3: 0 n (%)
  Diabetes mellitus, Grade ≥3: 1 (4) n (%)
  Drug-related adverse event: 18 (75) n (%)
  Fatigue, Grade ≥3 (Table 8): 0 n (%)
  Gamma-glutamyltransferase increased, Grade ≥3: 0 n (%)
  Grade ≥3 adverse event (Table 7): 2 (8) n (%)
  Hypercalcaemia, Grade ≥3: 0 n (%)
  Hypertension, Grade ≥3: 0 n (%)
  Hypotension, Grade ≥3: 0 n (%)
  Inguinal hernia, Grade ≥3: 0 n (%)
  Joint dislocation, Grade ≥3: 0 n (%)
  Metastases to bone, Grade ≥3: 0 n (%)
  Myocardial infarction, Grade ≥3: 1 (4) n (%)
  Non-cardiac chest pain, Grade ≥3: 0 n (%)
  Osteoarthritis, Grade ≥3: 0 n (%)
  Patients with at least 1 Grade ≥3 adverse events (Table 8): 2 (8) n (%)
  Procedural pain, Grade ≥3: 0 n (%)
  Sepsis, Grade ≥3: 0 n (%)
  Serious adverse event: 2 (8) n (%)
  Syncope, Grade ≥3: 0 n (%)
  Transient ischaemic attack, Grade ≥3: 0 n (%)
  Urinary tract infection, Grade ≥3: 0 n (%)
  hot flush (most common adverse event), patients: 15 (63%) n (%)
[2]; Baseline
  Testosterone Mean (Std Dev): 11.363 (5,0204) nmol/L
  Testosterone Median: 11.120 nmol/L
[2]; EOS
  Median testosterone: 13.5 ng/dL
[2]; EOT
  Median testosterone: 9.8 ng/dL
[2]; End of Study
  Testosterone Mean (Std Dev): 1.695 (3.0345) nmol/L
  Testosterone Median: 0.470 nmol/L
[2]; End of Treatment
  Testosterone Mean (Std Dev): 0.641 (0.9616) nmol/L
  Testosterone Median: 0.340 nmol/L
[2]; Follow-Up
  Testosterone Mean (Std Dev): 0.992 (2.2948) nmol/L
  Testosterone Median: 0.340 nmol/L
[2]; Follow-up visit
  Median testosterone: 9.8 ng/dL
[2]; Week 49, Day 1
  Testosterone Mean (Std Dev): 0.478 (0.6313) nmol/L
  Testosterone Median: 0.300 nmol/L
[2]; leuprolide acetate 22.5 mg SC
  course of serum testosterone levels: rose during the first 1-2 weeks of therapy then declined to castration levels by Week 5 Day 1; also recorded: rose during the first 1 to 2 weeks of therapy then declined to castrate levels by Week 5 Day 1
[3]; Baseline
  FSH Mean (Std Dev): 19.688 (19.1894) IU/L
  FSH Median: 14.500 IU/L
[3]; Week 2, Day 1
  FSH Mean (Std Dev): 7.650 (5.4542) IU/L
  FSH Median: 5.150 IU/L
[3]; Week 5, Day 1
  FSH Mean (Std Dev): 2.946 (1.4428) IU/L
  FSH Median: 2.550 IU/L
[3]; Week 13, Day 1
  FSH Mean (Std Dev): 4.625 (2.5594) IU/L
  FSH Median: 3.600 IU/L
[3]; Week 25, Day 1
  FSH Mean (Std Dev): 5.043 (2.8221) IU/L
  FSH Median: 4.400 IU/L
[3]; Week 49, Day 1
  FSH Mean (Std Dev): 5.145 (2.8201) IU/L
  FSH Median: 4.250 IU/L
[3]; after 48 weeks of treatment
  median FSH: ~4.2 mIU/mL
[4]; Leuprolide Q12W
  Median time from first dose to PSA nadir: 20.5 Weeks
[4]; after 4 weeks of treatment
  patients with ≥50% serum PSA reduction: 20%
  patients with ≥90% serum PSA reduction: 0%
[5]; Baseline
  AMS total score, mean: 28.3
[5]; EOS
  AMS total score after treatment, mean (95% CI) percent change from baseline: 49.9 (21.0-78.7) %
[5]; EOT
  AMS total score after treatment, mean (95% CI) percent change from baseline: 61.0 (22.7-99.2) %
[5]; Follow-up
  AMS total score after treatment, mean (95% CI) percent change from baseline: 53.8 (18.2-89.4) %
[5]; W5, D1
  AMS total score, mean percent change from baseline: 10.1%
[5]; W13, D1
  AMS total score, mean percent change from baseline: 21.9%
[5]; W25, D1
  AMS total score, mean percent change from baseline: 47.0%
[5]; W37, D1
  AMS total score, mean percent change from baseline: 49.4%
[5]; W49, D1
  AMS total score, mean percent change from baseline: 60.0%
